From PubChem BioAssay (NCI)
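48-hour exposure; five concentrations; linearly interpolated endpoints. TGI is the concentration that stops growth completely.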

What was measured:
Experiment in all cases: DTP human tumour cell line panel, 48 h
SNB-19 CNS = test system: SNB-19 CNS
U251 CNS = test system: U251 CNS
K-562 leukemia = test system: K-562 leukemia
PC-3 prostate = test system: PC-3 prostate
BT-549 breast = test system: BT-549 breast
HCC-2998 colon = test system: HCC-2998 colon
MOLT-4 leukemia = test system: MOLT-4 leukemia
HL-60(TB) leukemia = test system: HL-60(TB) leukemia
NCI/ADR-RES ovarian = test system: NCI/ADR-RES ovarian
SF-539 CNS = test system: SF-539 CNS
UO-31 renal = test system: UO-31 renal
CAKI-1 renal = test system: CAKI-1 renal
TK-10 renal = test system: TK-10 renal
786-0 renal = test system: 786-0 renal
RPMI-8226 leukemia = test system: RPMI-8226 leukemia
RXF 393 renal = test system: RXF 393 renal
SF-268 CNS = test system: SF-268 CNS
OVCAR-8 ovarian = test system: OVCAR-8 ovarian
HS 578T breast = test system: HS 578T breast
SK-MEL-5 melanoma = test system: SK-MEL-5 melanoma
M14 melanoma = test system: M14 melanoma
A549 NSCLC = test system: A549 NSCLC
OVCAR-4 ovarian = test system: OVCAR-4 ovarian
SR leukemia = test system: SR leukemia
CCRF-CEM leukemia = test system: CCRF-CEM leukemia
NCI-H460 lung = test system: NCI-H460 lung
UACC-62 melanoma = test system: UACC-62 melanoma
HCT-15 colon = test system: HCT-15 colon
HOP-92 NSCLC = test system: HOP-92 NSCLC
IGROV1 ovarian = test system: IGROV1 ovarian
KM12 colon = test system: KM12 colon
NCI-H226 lung = test system: NCI-H226 lung
SW-620 colon = test system: SW-620 colon
SN12C renal = test system: SN12C renal
SK-OV-3 ovarian = test system: SK-OV-3 ovarian
LOX IMVI melanoma = test system: LOX IMVI melanoma
OVCAR-5 ovarian = test system: OVCAR-5 ovarian
ACHN renal = test system: ACHN renal
A498 renal = test system: A498 renal
EKVX NSCLC = test system: EKVX NSCLC
MCF7 breast = test system: MCF7 breast
NCI-H23 lung = test system: NCI-H23 lung
SK-MEL-28 melanoma = test system: SK-MEL-28 melanoma
HT29 colon = test system: HT29 colon
SNB-75 CNS = test system: SNB-75 CNS
OVCAR-3 ovarian = test system: OVCAR-3 ovarian

Measured: TGI

CCNCCNC(=O)c1ccc(I)cc1
> 100 µM: all assays above
